Source: patent US20210221817A1, “NOVEL HETEROAROMATIC COMPOUNDS AS POTENT MODULATORS OF THE HIPPO-YAP SIGNALING PATHWAY LATS1/2 KINASES” (Nivien Therapeutics Compny, priority 2018, published 2021)

How the values were obtained:
[1] = molecular target: T1, LATS1/2; test: TR-FRET LanthaScreen binding assay; settings: LATS1 (aa 589-1130), LATS2 (aa 488-1080), kinase tracer 236
T1 construct: LATS1 (amino acids 589-1130; ThermoFisher, PV6363), LATS2 (amino acids 488-1080; fused on or other part: GST tag, inferred from the LanthaScreen Eu-anti-GST antibody and the ThermoFisher products
Method: IC50 scores were determined using a TR-FRET LanthaScreen binding assay using LATS1 (amino acids 589-1130; ThermoFisher, PV6363), LATS2 (amino acids 488-1080; ThermoFisher, PV6366); kinase tracer 236 (ThermoFisher, PV5592); LanthaScreen Eu-anti-GST (ThermoFisher, PV3189); 5× kinase buffer A (ThermoFisher, PV6135); low-volume 384-well plate format.

[2] = tested on: YAP phosphorylation in PANC1 cells; test: YAP phosphorylation in PDAC PANC1 cells (FIG. 1); assay type: cell-based; settings: 48 h; for overall YAP levels / p-YAP levels (YAP phosphorylation): 5 μM and 25 μM
Method: FIG. 1 is an image showing that the LATS1/2 inhibitors of the invention reduce YAP phosphorylation in PDAC PANC1 cells in a dose-dependent manner. FIG. 1 consists of two columns. On the left: the cells were treated with control and 5 μM of each of the compounds of the invention. Control in lane “C.” In lane “1” is 4-(6-(4-(2-morpholinoethoxy)phenyl)imidazo[1,2-b]pyridazin-3-yl)benzamide (compound 1). In lane “2” is 4-(6-(3-aminopiperidin-1-yl)imidazo[1,2-b]pyridazin-3-yl)benzamide (compound 3). In lane “4” is 4-(6-(4-aminopiperidin-1-yl)imidazo[1,2-b]pyridazin-3-yl)benzamide (compound 4). In lane “6” is 4-(6-(piperazin-1-yl)imidazo[1,2-b]pyridazin-3-yl)benzamide (compound 2). In lane “7” is 4-(4-(4-(4-chlorophenyl)piperidin-4-yl)phenyl)-3-methyl-1H-pyrazolo[4,3-c]pyridine (compound 5).
(§1) On the left: the cells were treated with control and 25 μM of each of the compounds of the invention. Control in lane “C.” In lane “1” is 4-(6-(4-(2-morpholinoethoxy)phenyl)imidazo[1,2-b]pyridazin-3-yl)benzamide (compound 1). In lane “2” is 4-(6-(3-aminopiperidin-1-yl)imidazo[1,2-b]pyridazin-3-yl)benzamide (compound 3). In lane “4” is 4-(6-(4-aminopiperidin-1-yl)imidazo[1,2-b]pyridazin-3-yl)benzamide (compound 4). In lane “6” is 4-(6-(piperazin-1-yl)imidazo[1,2-b]pyridazin-3-yl)benzamide (compound 2). In lane “7” is 4-(4-(4-(4-chlorophenyl)piperidin-4-yl)phenyl)-3-methyl-1H-pyrazolo[4,3-c]pyridine (Compound 5).
(§2) YAP is stained for Yes-associated protein; p-YAP is stained for phosphorylated Yes-associated protein; GAPDH is a standard protein loading control.

[3] = tested on: ABCG2 transcription in PANC1 cells; test: ABCG2 transcription in PDAC PANC1 cells (FIG. 2); assay type: cell-based; settings: 25 μM, 48-hour treatment
Method: FIG. 2 is an image showing that the LATS1/2 inhibitors of the invention reduce transcription of ABCG2, a critical multidrug efflux transporter, in PDAC PANC1 cells. The y-axis is the normalized transcription level of ABCG2. The bar labeled ABCG2_control represents PANC1 cells that received no treatment. The bar labeled ABCG2_201 represents PANC1 cells treated with 4-(6-(4-(2-morpholinoethoxy)phenyl)imidazo[1,2-b]pyridazin-3-yl)benzamide (compound 1) at 25 μM. The bar labeled ABCG2_206 represents cells treated with 4-(6-(piperazin-1-yl)imidazo[1,2-b]pyridazin-3-yl)benzamide (compound 2) 25 μM.

[4] = tested on: PANC1 cells; test: Killing of PANC1 cells observed in the FIG. 1 experiment; assay type: cell-based; settings: higher dose (25 μM)
Method: as §1, §2

Compound	IC50 [1] [nM]	overall YAP levels [2]	p-YAP levels (YAP phosphorylation) [2]	ABCG2 transcription levels [3]	p-YAP levels at the lower dose ([2]; lower dose (5 μM))	killing of PANC1 cells at the higher dose [4]
NC(=O)c1ccc(-c2cnc3ccc(-c4ccc(OCCN5CCOCC5)cc4)nn23)cc1 [Compound 1, 4-(6-(4-(2-Morpholinoethoxy)phenyl)imidazo[1,2-b]pyridazin-3-yl)benzamide]	10 to 1000	without impacting overall YAP levels	reduce p-YAP levels	reduce ABCG2 transcription levels	–	–
NC(=O)c1ccc(-c2cnc3ccc(N4CCNCC4)nn23)cc1 [Compound 2, 4-(6-(piperazin-1-yl)imidazo[1,2-b]pyridazin-3-yl)benzamide]	0.1 to 50	without impacting overall YAP levels	reduce p-YAP levels	reduce ABCG2 transcription levels	–	–
NC(=O)c1ccc(-c2cnc3ccc(N4CCCC(N)C4)nn23)cc1 (stereo not shown) [Compound 3, 4-(6-(3-Aminopiperidin-1-yl)imidazo[1,2-b]pyridazin-3-yl)benzamide]	0.1 to 50	–	–	–	–	–
NC(=O)c1ccc(-c2cnc3ccc(N4CCC(N)CC4)nn23)cc1 [Compound 4, 4-(6-(4-Aminopiperidin-1-yl)imidazo[1,2-b]pyridazin-3-yl)benzamide]	0.1 to 50	–	–	–	–	–
Cc1n[nH]c2ccnc(-c3ccc(C4(c5ccc(Cl)cc5)CCNCC4)cc3)c12 [Compound 5, 4-(4-(4-(4-chlorophenyl)piperidin-4-yl)phenyl)-3-methyl-1H-pyrazolo[4,3-c]pyridine]	0.1 to 50	–	–	–	reduced p-YAP levels	killed all PANC1 cells
